How the values were obtained:
NK cells = assay: CD56 and CD16 surface expression on purified NK cells (flow); assay type: cell-based, human; settings: lenalidomide 72 hours
Protocol: FIG. 4B: Lenalidomide treatment increases percentage of CD56+/[…] cells. Negatively selected NK cells were incubated with Lenalidomide (0.5 μM) or vehicle control. CD56 and CD16 surface expression was analyzed by flow after 72 h of treatment. The graphs show, respectively, percentage change CD56+/CD16+ (left panel, N=12, p<0.01) and CD56−/CD16+ (right panel, N=12, p<0.005) double positive cells.
For ADCC experiments, CD56^+ and CD19^+ cells were negatively purified from whole blood obtained from either healthy volunteers or CLL subjects by magnetic-activated cell sorting according to the manufacturer's recommendations (MiniMACS; Miltenyi Biotec, Auburn, Calif.). The purity of enriched populations was always greater than 95% of the total yield as detected by CD19 and CD3 staining.

Raji cell line xenograft = settings: Raji xenograft mouse, lenalidomide alone; cited from earlier work
CD20 = assay: Intracellular CD20 staining (flow cytometry); assay type: cell-based, human
Protocol: CLL cells were incubated with a molar excess of rituximab to saturate the binding of extracellular CD20. Cells were washed twice with PBS and then fixed and permeablilized using the Cytofix/Cytoperm Kit (BD Biosciences PharMingen, San Diego, Calif.) according to the manufacturer's recommendations. Cells were then incubated with CD20-phycoerythrin (PE) antibody, washed twice in PBS, and analyzed by flow cytometry. To ensure the specificity of the staining procedure, binding of IgG1-k isotype antibody was also measured.

Nc1cccc2c1CN(C1CCC(=O)NC1=O)C2=O (stereo not drawn) [lenalidomide]
percentage of CDC16+/CD56− cells (NK cells; N=12, P<0.005 (vehicle 35% ±13%)): 20% ±11%
percentage of CD16+/CD56+ cells (NK cells; N=12, P<0.01 (vehicle 18% ±10%)): 31% ±14%
NK cell expansion (Raji cell line xenograft): induced NK cell expansion
tumor growth (Raji cell line xenograft): failed to inhibit tumor growth
CLL subject samples with reduction of CD20 antigen surface expression (CD20; after lenalidomide treatment): 6 of 8
intracellular CD20 fluorescence (CD20; compared with vehicle-treated controls, P=0.006): increased intracellular fluorescence
